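Exposure lasted 48 hours, with cells grown in 96-well plates and compounds tested at five concentrations. GI50 is the concentration that inhibits growth by half. The concentration for full growth arrest is given as TGI.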
Legend:
Assay in all cases: inhibition of tumour cell growth, NCI panel, 48 h
[1] = system: TK-10 renal
[2] = system: HT29 colon
[3] = system: SN12C renal
[4] = system: NCI-H23 lung
[5] = system: OVCAR-8 ovarian
[6] = system: SF-539 CNS
[7] = system: HCC-2998 colon
[8] = system: SK-OV-3 ovarian
[9] = system: SF-295 CNS
[10] = system: UACC-257 melanoma
[11] = system: CAKI-1 renal
[12] = system: HCT-116 colon
[13] = system: SK-MEL-2 melanoma
[14] = system: MCF7 breast
[15] = system: UO-31 renal
[16] = system: RXF 393 renal
[17] = system: HL-60(TB) leukemia
[18] = system: UACC-62 melanoma
[19] = system: SK-MEL-5 melanoma
[20] = system: ACHN renal
[21] = system: SNB-75 CNS
[22] = system: M14 melanoma
[23] = system: IGROV1 ovarian
[24] = system: MDA-MB-468 breast
[25] = system: DU-145 prostate
[26] = system: HOP-62 NSCLC
[27] = system: OVCAR-5 ovarian
[28] = system: CCRF-CEM leukemia
[29] = system: T-47D breast
[30] = system: MALME-3M melanoma
[31] = system: SK-MEL-28 melanoma
[32] = system: PC-3 prostate
[33] = system: RPMI-8226 leukemia
[34] = system: SF-268 CNS
[35] = system: KM12 colon
[36] = system: K-562 leukemia
[37] = system: BT-549 breast
[38] = system: EKVX NSCLC
[39] = system: A498 renal
[40] = system: NCI-H226 lung
[41] = system: HCT-15 colon
[42] = system: MDA-MB-435
[43] = system: NCI-H460 lung
[44] = system: SNB-19 CNS
[45] = system: MOLT-4 leukemia
[46] = system: MDA-MB-231 breast
[47] = system: NCI-H522 lung
[48] = system: OVCAR-4 ovarian
[49] = system: HOP-92 NSCLC
[50] = system: HS 578T breast
[51] = system: OVCAR-3 ovarian
[52] = system: 786-0 renal
[53] = system: U251 CNS
[54] = system: A549 NSCLC

Structure (SMILES): O=C(/C=C/c1cccc(OCc2ccccc2)c1)c1nc2ccccc2[nH]1
- GI50 [1]: 28.6 µM
- TGI [1]: > 100 µM
- GI50 [2]: 3.98 µM
- TGI [2]: > 100 µM
- GI50 [3]: 38 µM
- TGI [3]: > 100 µM
- GI50 [4]: 18.3 µM
- TGI [4]: > 100 µM
- GI50 [5]: 17 µM
- TGI [5]: 72.6 µM
- GI50 [6]: 8.82 µM
- TGI [6]: 26.7 µM
- GI50 [7]: 7.19 µM
- TGI [7]: 41.3 µM
- GI50 [8]: 20.2 µM
- TGI [8]: 73.9 µM
- GI50 [9]: 15.6 µM
- TGI [9]: 37.9 µM
- GI50 [10]: > 100 µM
- TGI [10]: > 100 µM
- GI50 [11]: 14 µM
- TGI [11]: > 100 µM
- GI50 [12]: 3.2 µM
- TGI [12]: > 100 µM
- GI50 [13]: 22.5 µM
- TGI [13]: 64.8 µM
- GI50 [14]: 2.9 µM
- TGI [14]: > 100 µM
- GI50 [15]: 8.96 µM
- TGI [15]: > 100 µM
- GI50 [16]: 10.5 µM
- TGI [16]: 27.9 µM
- GI50 [17]: 4.39 µM
- TGI [17]: 25 µM
- GI50 [18]: 15.6 µM
- TGI [18]: > 100 µM
- GI50 [19]: 39.1 µM
- TGI [19]: > 100 µM
- GI50 [20]: 29.6 µM
- TGI [20]: > 100 µM
- GI50 [21]: 14.4 µM
- TGI [21]: 48.7 µM
- GI50 [22]: 45.1 µM
- TGI [22]: > 100 µM
- GI50 [23]: 14 µM
- TGI [23]: 78.2 µM
- GI50 [24]: 10.7 µM
- TGI [24]: 82.5 µM
- GI50 [25]: 54.6 µM
- TGI [25]: > 100 µM
- GI50 [26]: 17.8 µM
- TGI [26]: 43.2 µM
- GI50 [27]: 25.2 µM
- TGI [27]: > 100 µM
- GI50 [28]: 8.99 µM
- TGI [28]: > 100 µM
- GI50 [29]: 6.9 µM
- TGI [29]: > 100 µM
- GI50 [30]: 28.3 µM
- TGI [30]: > 100 µM
- GI50 [31]: 25.2 µM
- TGI [31]: > 100 µM
- GI50 [32]: 15.9 µM
- TGI [32]: > 100 µM
- GI50 [33]: 2.86 µM
- TGI [33]: 8.3 µM
- GI50 [34]: 26.2 µM
- TGI [34]: > 100 µM
- GI50 [35]: 3.56 µM
- TGI [35]: > 100 µM
- GI50 [36]: 4.14 µM
- TGI [36]: > 100 µM
- GI50 [37]: 11.4 µM
- TGI [37]: 40.2 µM
- GI50 [38]: 19.9 µM
- TGI [38]: 69.7 µM
- GI50 [39]: 25 µM
- TGI [39]: > 100 µM
- GI50 [40]: 24.3 µM
- TGI [40]: > 100 µM
- GI50 [41]: 3.06 µM
- TGI [41]: > 100 µM
- GI50 [42]: > 100 µM
- TGI [42]: > 100 µM
- GI50 [43]: 15.4 µM
- TGI [43]: > 100 µM
- GI50 [44]: 13.6 µM
- TGI [44]: 41.1 µM
- GI50 [45]: 5.28 µM
- TGI [45]: 55.1 µM
- GI50 [46]: 11.9 µM
- TGI [46]: 42.5 µM
- GI50 [47]: 26.3 µM
- TGI [47]: > 100 µM
- GI50 [48]: 23.9 µM
- TGI [48]: > 100 µM
- GI50 [49]: 6.51 µM
- TGI [49]: 37.2 µM
- GI50 [50]: 20.3 µM
- TGI [50]: 82.5 µM
- GI50 [51]: 4.01 µM
- TGI [51]: > 100 µM
- GI50 [52]: 14 µM
- TGI [52]: 44.1 µM
- GI50 [53]: 3.03 µM
- TGI [53]: 10.2 µM
- GI50 [54]: 49.9 µM
- TGI [54]: > 100 µM
